Reference: patent publication US20140186263A1, “MALEIMIDE-FUNC[…] NANOPARTICLES” (THE ROYAL INSTITUTION FOR THE ADVANCEMENT OF …, priority 2011, published 2014)

System: blood brain barrier (BBB); brain, cerebellum
Assay: Biodistribution of [18F]-AuNP in rats by small animal micro-PET
Assay type: in vivo, SD (Sprague-Dawley) rats
Conditions: healthy rats, intravenous injection, micro-PET brain scan
Method: To evaluate the bio-distribution of the AuNPs, [^18F] SiFA-AuNP (12 MBq) were injected into healthy rats (n=3) and evaluated by micro-PET. Representative body and brain scan images of a micro-PET scan following intravenous injection of a solution of [^18F]-SiFA-AuNP are illustrated in FIG. 8. Radioactivity was found in the kidney, liver and spleen.
The time-activity curves obtained from the PET images depicting the radioactivity uptake in the cerebellum and the brain (n=3), using bone radioactivity as a region of reference, are illustrated in FIG. 9 These curves illustrate that AuNPs start to accumulate in the cerebellum and brain at 25-120 min. Ex vivo biodistribution studies were also carried out to confirm the bio-distribution data of [^18F]-SiFA-AuNP in different organs 2 h following injection as obtained by micro-PET. The biodistribution data is illustrated in FIG. 10 and is expressed as the percentage of injected dose for each gram of tissue (% ID/g). […]
Biodistribution of [^18F]-AuNP in Rats by small animal PET: SD (Sprague-Dawley) Rats for in vivo PET studies were housed in a 12 h light/dark cycle at 21° C. with access to food and water ad libitum. […] Respiration rate, heart rate and body temperature were monitored throughout the scan (Biopac sytems MP150, Goleta, Calif., USA). […] The PET images were analyzed using ASIPRO software (Concorde Microsystems). […]

## CC(C)(C)[Si](F)(c1ccc(S)cc1)C(C)(C)C [[^18F]-SiFA-SH, ^18F-labeled 4-(di-tert-butylfluorosilanyl)benzenethiol]
  crossing of the blood brain barrier (BBB): does not cross the BBB
